Measured values from US10197581B2, “Vitamin D assays” (Enzo Life Sciences, Inc., priority 2013, dated 2019).
Structures can show the parent of a compound that is named as a salt. Where two headings read alike, the source gives them in different places.

Assays:
[1] = molecular target: T1, vitamin D binding protein (DBP) (Homo sapiens, UniProt P02774); assay: Screening of dissociation buffer components (release reagents) in the 25OHD ELISA; type: biochemical; conditions: for release of 25OHD from DBP and maintaining 25OHD availability for antibody binding / tolerance in the assay: component of dissociation buffer; for effect towards dissociation of 25OHD from DBP: earlier experiments
T1 sequence (P02774 17-474): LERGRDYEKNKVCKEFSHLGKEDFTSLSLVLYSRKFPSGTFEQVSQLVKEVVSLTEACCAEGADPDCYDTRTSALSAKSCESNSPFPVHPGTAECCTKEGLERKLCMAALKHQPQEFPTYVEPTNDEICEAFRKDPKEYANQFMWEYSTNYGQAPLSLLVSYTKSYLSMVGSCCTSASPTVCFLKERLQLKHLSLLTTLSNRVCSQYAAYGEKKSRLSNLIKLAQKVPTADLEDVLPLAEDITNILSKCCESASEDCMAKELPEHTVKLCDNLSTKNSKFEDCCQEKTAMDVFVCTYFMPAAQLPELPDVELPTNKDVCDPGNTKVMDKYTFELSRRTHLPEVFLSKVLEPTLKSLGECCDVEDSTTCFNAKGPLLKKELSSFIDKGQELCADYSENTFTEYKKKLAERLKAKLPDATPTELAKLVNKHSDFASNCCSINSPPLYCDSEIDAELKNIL
Protocol: In order to optimize the ELISA 25OHD assay, components of the dissociation buffer, the assay buffer and the wash buffer, and conditions for performing various steps in the protocol were tested in the assay. Various reagents were tested alone or in combination for their effects on dissociation of 25OHD from DBP.
In addition, various types and concentrations of buffer salts (e.g., Tris, MES, citrate) were used in the dissociation buffers, assay buffers and wash buffers. Dissociation and wash buffers having a pH from 4-8 were tested. Dissocation was performed at different temperatures (RT, 37° C., 65° C.) and in different incubation vessels (polypropylene or polystyrene) and the competitive ELISA was performed using various different 25OHD conjugates.

[2] = type: physicochemical
[3] = tested on: sheep monoclonal anti-25OHD antibody (Bioventix); assay: Cross-reactivity of vitamin D metabolites in the optimized 25OHD competitive ELISA; type: binding; conditions: for % cross-reactivity: determined at the OD corresponding to the ED50 of 25OHD3; for ED50: optimized 25OHD ELISA, metabolite serially diluted in Tris buffer
Protocol: Ten vitamin D metabolites were tested for cross-reactivity in the optimized 25OHD ELISA assay described above. New concentrated stock solutions were prepared from dry chemicals for all metabolites. For cross-reactivity testing, each metabolite was prepared and serially diluted in a Tris buffer. Metabolites and the concentration ranges tested are in Table 3. The metabolite solutions were used as samples and mixed with dissociation buffer and the assay carried out as previously described.

Molecule	release of 25OHD from DBP and maintaining 25OHD availability for antibody binding [1]	% cross-reactivity [3] [%]	ED50 [3] [µg/mL]	also measured
CCCC[n+]1ccc(C)cc1.F[B-](F)(F)F	effective and generally compatible with the assay	–	–	time after manufacture until dissociation buffer became unreliable [2]: ≤ 7 days; pH of the dissociation buffer ([2]; after 1.5 days): 4.7; pH of the dissociation buffer ([2]; after 4 days): 4.07; pH of the dissociation buffer ([2]; after 7 day): 3.46; pH of the dissociation buffer ([2]; after 8 days): 2.79; pH of the dissociation buffer ([2]; after 9 days): 2.43; pH of the dissociation buffer ([2]; freshly made): 5.2
1-butyl-3-methylimidazolium octylsulfate	effective and generally compatible with the assay	–	–	–
C=C1/C(=C\C=C2/CCC[C@]3(C)[C@@H]([C@H](C)/C=C/[C@H](C)C(C)(C)O)CC[C@@H]23)C[C@@H](O)C[C@@H]1O [1,25(OH)2VitaminD2]	–	94.1	0.00186	% cross-reactivity ([3]; listed as 1,25(OH)2D2): 94%
C=C1/C(=C\C=C2/CCC[C@]3(C)[C@@H]([C@H](C)CCCC(C)(C)O)CC[C@@H]23)C[C@@H](O)C[C@@H]1O [1,25(OH)2VitaminD3]	–	27.9	0.00627	% cross-reactivity ([3]; listed as 1,25(OH)2D3): 28%
CCCCn1cc[n+](C)c1.F[B-](F)(F)F [1-butyl-3-methylimidazolium tetrafluoroborate]	effective and generally compatible with the assay	–	–	–
C=C1/C(=C\C=C2/CCC[C@]3(C)[C@@H]([C@H](C)/C=C/[C@H](C)C(C)C)CC[C@@H]23)C[C@@H](O)C[C@@H]1O [1α(OH)VitaminD2]	–	<0.01	1.43	–
C=C1/C(=C\C=C2/CCC[C@]3(C)[C@@H]([C@H](C)CCCC(C)C)CC[C@@H]23)C[C@@H](O)C[C@@H]1O [1α(OH)VitaminD3]	–	0.04	4.03	–
CC(C)O [2-isopropanol]	ineffective release reagents at concentrations that were tolerable in the assay	–	–	–
C=C1CC[C@@H](O)C/C1=C/C=C1\CCC[C@]2(C)[C@@H]([C@H](C)CCCC(C)(C)O)CC[C@@H]12 [3-epi-25(OH)VitaminD3]	–	50.87	0.00344	% cross-reactivity ([3]; listed as 3-epimer of 25(OH)VitaminD3): 51%
C=C1CCC(O)C/C1=C\C=C1\CCCC2(C)C1CCC2C(C)CCC(O)C(C)(C)O (stereo not drawn) [24,25(OH)2VitaminD3]	–	1.25	0.14	detection by the anti-25OHD antibody ([3]; 25OHD assay): neither the parent vitamin compounds nor the 24,25(OH)2VitaminD3 metabolite was detected to any appreciable degree
C=C1CC[C@H](O)C/C1=C/C=C1\CCC[C@]2(C)[C@@H]([C@H](C)/C=C/[C@H](C)C(C)(C)O)CC[C@@H]12 [25(OH)VitaminD2]	–	87.94	0.00199	% cross-reactivity ([3]; listed as 25OHD2): 88%
C=C1CC[C@H](O)C/C1=C/C=C1\CCC[C@]2(C)[C@@H]([C@H](C)CCCC(C)(C)O)CC[C@@H]12 [25(OH)VitaminD3]	–	100	0.00175	–
CC#N [Acetonitrile, acetonitrile]	ineffective release reagents at concentrations that were tolerable in the assay	–	–	–
CCCCC/C=C\C/C=C\C/C=C\C/C=C\CCCC(=O)O [Arachidonic acid, arachidonic acid]	did not aid in dissociating 25OHD from DBP	–	–	–
C[C@H](CCC(=O)NCCC[N+](C)(C)CCCS(=O)(=O)[O-])[C@H]1CC[C@H]2[C@@H]3[C@H](O)C[C@@H]4C[C@H](O)CC[C@]4(C)[C@H]3C[C@H](O)[C@]12C [CHAPS]	did not aid in dissociating 25OHD from DBP	–	–	–
O[C@@H](CS)[C@@H](O)CS [DTT]	did not aid in dissociating 25OHD from DBP	–	–	–

Molecule	release of 25OHD from DBP and maintaining 25OHD availability for antibody binding [1]	% cross-reactivity [3] [%]	ED50 [3] [µg/mL]	also measured
O=C(O)CN(CCN(CC(=O)O)CC(=O)O)CC(=O)O [EDTA]	did not aid in dissociating 25OHD from DBP	–	–	–
CCCCCCCCCCCCOS(=O)(=O)[O-].[Na+] [SDS, sodium dodecyl sulfate]	did not aid in dissociating 25OHD from DBP	–	–	–
O=C(O)CCP(CCC(=O)O)CCC(=O)O [TCEP]	did not aid in dissociating 25OHD from DBP	–	–	–
CCCCCCCCCCCC(=O)OCCOCCOCCOCCOCCOCCOCCOCCOCCOCCOCCOCCOCCOCCOCCOCCOCCOCCOCCOCCOCC(OCCOCCOCCOCCOCCOCCOCCOCCOCCOCCOCCOCCOCCOCCOCCOCCOCCOCCOCCOCCO)C1OCC(OCCOCCOCCOCCOCCOCCOCCOCCOCCOCCOCCOCCOCCOCCOCCOCCOCCOCCOCCOCCO)C1OCCOCCOCCOCCOCCOCCOCCOCCOCCOCCOCCOCCOCCOCCOCCOCCOCCOCCOCCOCCO (stereo not drawn) [Tween-20, Polysorbate 20]	did not aid in dissociating 25OHD from DBP	–	–	–
C=C1CC[C@H](O)C/C1=C/C=C1\CCC[C@]2(C)[C@@H]([C@H](C)/C=C/[C@H](C)C(C)C)CC[C@@H]12 [Vitamin D2]	–	0.11	1.643	–
C=C1CC[C@H](O)C/C1=C/C=C1\CCC[C@]2(C)[C@@H]([C@H](C)CCCC(C)C)CC[C@@H]12 [Vitamin D3]	–	0.01	23.5	–
CCCCCCCCCCCCCC[N+](C)(C)CCCS(=O)(=O)[O-] [Zwittergent 3-14]	–	–	–	tolerance in the assay [1]: not tolerated in the assay
CCO [ethanol]	ineffective release reagents at concentrations that were tolerable in the assay	–	–	–
N=C(N)N [guanidine HCl]	did not aid in dissociating 25OHD from DBP	–	–	–
CO [methanol]	ineffective release reagents at concentrations that were tolerable in the assay	–	–	–
O=C([O-])c1ccccc1O.[Na+] [sodium salicylate]	effective and generally compatible with the assay	–	–	preventing 25OHD re-uptake by DBP or binding to other cellular proteins/lipids [1]: appeared to be effective; effect towards dissociation of 25OHD from DBP [1]: did not show a large effect
NP-40	–	–	–	tolerance in the assay [1]: not tolerated in the assay
Triton X-100	–	–	–	tolerance in the assay [1]: not tolerated in the assay
casein	–	–	–	effect on absorbance signal and dynamic signal range ([1]; protein at or above 0.5% in the assay): negatively impacted absorbance signal and dynamic signal range
methyl β-cyclodextrin	effective and generally compatible with the assay	–	–	preventing 25OHD re-uptake by DBP or binding to other cellular proteins/lipids [1]: appeared to be effective; effect towards dissociation of 25OHD from DBP [1]: did not show a large effect
